Measurements as given in patent US8143290B2, “Chemical compounds 572” (AstraZeneca AB, priority 2006, dated 2012).

Target: T1, recombinant human GR (Homo sapiens, UniProt P04150)
T1 construct: purchased Panvera/Invitrogen P2812 (kit P2893)
T1 sequence (P04150 1-777): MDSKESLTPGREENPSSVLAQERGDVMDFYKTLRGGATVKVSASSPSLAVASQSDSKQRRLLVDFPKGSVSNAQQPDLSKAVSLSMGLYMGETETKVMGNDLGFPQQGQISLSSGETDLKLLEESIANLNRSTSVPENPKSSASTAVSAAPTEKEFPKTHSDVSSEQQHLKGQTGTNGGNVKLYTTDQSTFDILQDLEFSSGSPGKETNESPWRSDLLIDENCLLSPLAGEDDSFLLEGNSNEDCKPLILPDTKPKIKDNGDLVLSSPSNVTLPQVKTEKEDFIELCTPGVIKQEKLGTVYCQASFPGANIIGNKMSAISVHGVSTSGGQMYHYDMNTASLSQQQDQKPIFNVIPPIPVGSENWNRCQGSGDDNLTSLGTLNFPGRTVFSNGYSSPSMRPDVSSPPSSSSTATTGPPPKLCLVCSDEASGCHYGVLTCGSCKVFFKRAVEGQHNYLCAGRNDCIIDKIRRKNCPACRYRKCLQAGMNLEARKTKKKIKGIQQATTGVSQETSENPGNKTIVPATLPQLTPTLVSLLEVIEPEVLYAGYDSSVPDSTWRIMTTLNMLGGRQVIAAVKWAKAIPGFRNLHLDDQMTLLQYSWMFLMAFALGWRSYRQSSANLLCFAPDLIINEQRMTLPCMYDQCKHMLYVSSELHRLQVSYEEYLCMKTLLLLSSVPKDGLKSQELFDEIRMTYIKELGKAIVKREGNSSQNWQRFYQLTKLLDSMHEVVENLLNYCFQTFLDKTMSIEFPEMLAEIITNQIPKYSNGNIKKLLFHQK
Assay: Human Glucocorticoid Receptor (GR) Assay, fluorescence polarization
Assay type: binding
Conditions: GS Red tracer, incubated 2 h at r.t., XLfit model 205, read-out: GRhuFL_FP_v2 Mean IC50
How it was run: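 After 2 h dark incubation at r.t., polarization reported displacement of the GS Red tracer from recombinant GR, in buffer with phosphate, molybdate, EDTA, DTT and Stabilizing Peptide. Controls: dexamethasone (100%) and DMSO (0%).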

IC50	SMILES
4.5 nM	COc1ccccc1[C@@H](Oc1ccc2c(cnn2-c2ccc(F)cc2)c1)[C@H](C)NC(=O)C(C)(C)C [Example 187, N-[(1R,2S)-1-[1-(4-fluorophenyl)indazol-5-yl]oxy-1-(2-methoxyphenyl)propan-2-yl]-2,2-dimethyl-propanamide]
7.3 nM	CCCc1ccc([C@@H](Oc2ccc3c(cnn3-c3ccc(F)cc3)c2)[C@H](C)NC(=O)C(C)(C)C)cc1 [Example 188, N-[(1R,2S)-1-[1-(4-fluorophenyl)indazol-5-yl]oxy-1-(4-propylphenyl)propan-2-yl]-2,2-dimethyl-propanamide]
7.8 nM	C[C@H](NC(=O)C(C)(C)C)[C@H](Oc1ccc2c(cnn2-c2ccc(F)cc2)c1)c1ccc2c(c1)OCO2 [Example 189, N-[(1R,2S)-1-benzo[1,3]dioxol-5-yl-1-[1-(4-fluorophenyl)indazol-5-yl]oxy-propan-2-yl]-2,2-dimethyl-propanamide]
4.5 nM	Cc1c(F)cccc1[C@@H](Oc1ccc2c(cnn2-c2ccc(F)cc2)c1)[C@H](C)NC(=O)C(C)(C)C [Example 190, N-[(1R,2S)-1-(3-fluoro-2-methyl-phenyl)-1-[1-(4-fluorophenyl)indazol-5-yl]oxy-propan-2-yl]-2,2-dimethyl-propanamide]
5.9 nM	Cc1cc([C@@H](Oc2ccc3c(cnn3-c3ccc(F)cc3)c2)[C@H](C)NC(=O)C(C)(C)C)ccc1Cl [Example 191, N-[(1R,2S)-1-(4-chloro-3-methyl-phenyl)-1-[1-(4-fluorophenyl)indazol-5-yl]oxy-propan-2-yl]-2,2-dimethyl-propanamide]
4.3 nM	Cc1cnc(C(=O)N[C@@H](C)[C@H](Oc2ccc3c(cnn3-c3ccc(F)cc3)c2)c2ccc(C)c(C)c2)s1 [Example 192, N-[(1R,2S)-1-(3,4-dimethylphenyl)-1-[1-(4-fluorophenyl)indazol-5-yl]oxy-propan-2-yl]-5-methyl-1,3-thiazole-2-carboxamide]
6.5 nM	Cc1cnc(C(=O)N[C@@H](C)[C@H](Oc2ccc3c(cnn3-c3ccc(F)cc3)c2)c2ccc(F)c(F)c2)s1 [Example 193, N-[(1R,2S)-1-(3,4-difluorophenyl)-1-[1-(4-fluorophenyl)indazol-5-yl]oxy-propan-2-yl]-5-methyl-1,3-thiazole-2-carboxamide]
3.9 nM	Cc1cnc(C(=O)N[C@@H](C)[C@H](Oc2ccc3c(cnn3-c3ccc(F)cc3)c2)c2ccc(C)c(F)c2)s1 [Example 194, N-[(1R,2S)-1-(3-fluoro-4-methyl-phenyl)-1-[1-(4-fluorophenyl)indazol-5-yl]oxy-propan-2-yl]-5-methyl-1,3-thiazole-2-carboxamide]
3.3 nM	Cc1cnc(C(=O)N[C@@H](C)[C@H](Oc2ccc3c(cnn3-c3ccc(F)cc3)c2)c2cccc(F)c2)s1 [Example 195, N-[(1R,2S)-1-(3-fluorophenyl)-1-[1-(4-fluorophenyl)indazol-5-yl]oxy-propan-2-yl]-5-methyl-1,3-thiazole-2-carboxamide]
6.2 nM	Cc1ccc(C)c([C@@H](Oc2ccc3c(cnn3-c3ccc(F)cc3)c2)[C@H](C)NC(=O)c2ncc(C)s2)c1 [Example 196, N-[(1R,2S)-1-(2,5-dimethylphenyl)-1-[1-(4-fluorophenyl)indazol-5-yl]oxy-propan-2-yl]-5-methyl-1,3-thiazole-2-carboxamide]
4.9 nM	Cc1ccc([C@@H](Oc2ccc3c(cnn3-c3ccc(F)cc3)c2)[C@H](C)NC(=O)c2ncc(C)s2)c(C)c1 [Example 197, N-[(1R,2S)-1-(2,4-dimethylphenyl)-1-[1-(4-fluorophenyl)indazol-5-yl]oxy-propan-2-yl]-5-methyl-1,3-thiazole-2-carboxamide]
3.8 nM	COc1ccc([C@@H](Oc2ccc3c(cnn3-c3ccc(F)cc3)c2)[C@H](C)NC(=O)c2ncc(C)s2)cc1F [Example 198, N-[(1R,2S)-1-(3-fluoro-4-methoxy-phenyl)-1-[1-(4-fluorophenyl)indazol-5-yl]oxy-propan-2-yl]-5-methyl-1,3-thiazole-2-carboxamide]
7.4 nM	Cc1cnc(C(=O)N[C@@H](C)[C@H](Oc2ccc3c(cnn3-c3ccc(F)cc3)c2)c2cccc(Cl)c2)s1 [Example 199, N-[(1R,2S)-1-(3-chlorophenyl)-1-[1-(4-fluorophenyl)indazol-5-yl]oxy-propan-2-yl]-5-methyl-1,3-thiazole-2-carboxamide]
4.6 nM	Cc1cnc(C(=O)N[C@@H](C)[C@H](Oc2ccc3c(cnn3-c3ccc(F)cc3)c2)c2ccc(F)cc2C)s1 [Example 200, N-[(1R,2S)-1-(4-fluoro-2-methyl-phenyl)-1-[1-(4-fluorophenyl)indazol-5-yl]oxy-propan-2-yl]-5-methyl-1,3-thiazole-2-carboxamide]
5.9 nM	Cc1cnc(C(=O)N[C@@H](C)[C@H](Oc2ccc3c(cnn3-c3ccc(F)cc3)c2)c2cc(F)ccc2C)s1 [Example 201, N-[(1R,2S)-1-(5-fluoro-2-methyl-phenyl)-1-[1-(4-fluorophenyl)indazol-5-yl]oxy-propan-2-yl]-5-methyl-1,3-thiazole-2-carboxamide]
5.3 nM	COc1ccc(F)cc1[C@@H](Oc1ccc2c(cnn2-c2ccc(F)cc2)c1)[C@H](C)NC(=O)c1ncc(C)s1 [Example 202, N-[(1R,2S)-1-(5-fluoro-2-methoxy-phenyl)-1-[1-(4-fluorophenyl)indazol-5-yl]oxy-propan-2-yl]-5-methyl-1,3-thiazole-2-carboxamide]
5.4 nM	COc1c(C)cc([C@@H](Oc2ccc3c(cnn3-c3ccc(F)cc3)c2)[C@H](C)NC(=O)c2ncc(C)s2)cc1C [Example 203, N-[(1R,2S)-1-[1-(4-fluorophenyl)indazol-5-yl]oxy-1-(4-methoxy-3,5-dimethyl-phenyl)propan-2-yl]-5-methyl-1,3-thiazole-2-carboxamide]
6.7 nM	Cc1cnc(C(=O)N[C@@H](C)[C@H](Oc2ccc3c(cnn3-c3ccc(F)cc3)c2)c2ccc(Cl)cc2)s1 [Example 204, N-[(1R,2S)-1-(4-chlorophenyl)-1-[1-(4-fluorophenyl)indazol-5-yl]oxy-propan-2-yl]-5-methyl-1,3-thiazole-2-carboxamide]
6.6 nM	Cc1cnc(C(=O)N[C@@H](C)[C@H](Oc2ccc3c(cnn3-c3ccc(F)cc3)c2)c2cc(F)cc(Cl)c2)s1 [Example 205, N-[(1R,2S)-1-(3-chloro-5-fluoro-phenyl)-1-[1-(4-fluorophenyl)indazol-5-yl]oxy-propan-2-yl]-5-methyl-1,3-thiazole-2-carboxamide]
7.5 nM	Cc1cnc(C(=O)N[C@@H](C)[C@H](Oc2ccc3c(cnn3-c3ccc(F)cc3)c2)c2cc(C)c(C)cc2C)s1 [Example 206, N-[(1R,2S)-1-[1-(4-fluorophenyl)indazol-5-yl]oxy-1-(2,4,5-trimethylphenyl)propan-2-yl]-5-methyl-1,3-thiazole-2-carboxamide]
8.8 nM	Cc1cccc([C@@H](Oc2ccc3c(cnn3-c3ccc(F)cc3)c2)[C@H](C)NC(=O)c2ncc(C)s2)c1 [Example 207, N-[(1R,2S)-1-[1-(4-fluorophenyl)indazol-5-yl]oxy-1-(3-methylphenyl)propan-2-yl]-5-methyl-1,3-thiazole-2-carboxamide]
8.2 nM	Cc1cnc(C(=O)N[C@@H](C)[C@H](Oc2ccc3c(cnn3-c3ccc(F)cc3)c2)c2ccc(C(C)(C)C)cc2)s1 [Example 208, N-[(1R,2S)-1-[1-(4-fluorophenyl)indazol-5-yl]oxy-1-(4-tert-butylphenyl)propan-2-yl]-5-methyl-1,3-thiazole-2-carboxamide]
4.1 nM	COc1ccccc1[C@@H](Oc1ccc2c(cnn2-c2ccc(F)cc2)c1)[C@H](C)NC(=O)c1ncc(C)s1 [Example 209, N-[(1R,2S)-1-[1-(4-fluorophenyl)indazol-5-yl]oxy-1-(2-methoxyphenyl)propan-2-yl]-5-methyl-1,3-thiazole-2-carboxamide]
5.2 nM	Cc1cnc(C(=O)N[C@@H](C)[C@H](Oc2ccc3c(cnn3-c3ccc(F)cc3)c2)c2ccc3c(c2)OCO3)s1 [Example 210, N-[(1R,2S)-1-benzo[1,3]dioxol-5-yl-1-[1-(4-fluorophenyl)indazol-5-yl]oxy-propan-2-yl]-5-methyl-1,3-thiazole-2-carboxamide]
3 nM	Cc1ccc([C@@H](Oc2ccc3c(cnn3-c3ccc(F)cc3)c2)[C@H](C)NC(=O)C2(C)CC2)cc1C [Example 211, N-[(1R,2S)-1-(3,4-dimethylphenyl)-1-[1-(4-fluorophenyl)indazol-5-yl]oxy-propan-2-yl]-1-methyl-cyclopropane-1-carboxamide]
5.2 nM	C[C@H](NC(=O)C1(C)CC1)[C@H](Oc1ccc2c(cnn2-c2ccc(F)cc2)c1)c1ccc(F)c(F)c1 [Example 212, N-[(1R,2S)-1-(3,4-difluorophenyl)-1-[1-(4-fluorophenyl)indazol-5-yl]oxy-propan-2-yl]-1-methyl-cyclopropane-1-carboxamide]
